Where a SMILES comes first, the peptide text is derived from it. Bridges are numbered along the chain shown (N, C = ends). Triazole bridges read from a SMILES are 1,4-linked. [ ]: non-standard residue; d: D form. Oic = O=C(O)[C@@H]1C[C@@H]2CCCC[C@@H]2N1; Dap(N3) = [N-]=[N+]=NC[C@H](N)C(=O)O; tBuAla = CC(C)(C)C[C@H](N)C(=O)O; Pen = CC(C)(S)[C@H](N)C(=O)O; NMeC = CN[C@@H](CS)C(=O)O; Orn = NCCC[C@H](N)C(=O)O; Pra = C#CC[C@H](N)C(=O)O; Abu = CC[C@H](N)C(=O)O; Ahx = NCCCCCC(=O)O; Sar = CNCC(=O)O

For one experiment, the target named is human MASP1 (Homo sapiens (Human), UniProt P48740). The experiment in a line: Biochemical human MASP1 assay (FRET substrate). Particulars: Average IC50; recombinant human MASP1; read-out: human MASP1 IC50. The text has this: A truncated cDNA sequence of human MASP1 encoding the fragment corresponding to the amino acids 297-699 with a C-terminal His Tag and N-terminal Ig-kappa secretion signal (SEQ ID No: 2) was subcloned into the mammalian expression vector pcDNA3.1 (Invitrogen).
The MASP1 or MASP2 expression vectors were transfected into the HEK293 (ATCC No. CRL-1573) cell line using Lipofectamine LTX® Reagent (Thermo-Fischer), as described by the manufacturer. The mature form of the recombinant human MASP1 and MASP2 proteases were secreted into the culture medium. The MASP1 and MASP2 proteins were purified from the conditioned media by affinity chromatography on Ni-NTA Superflow resin (Qiagen) as described by the manufacturer.
2.2 Biochemical Human MASP1 Assay
Recombinant human MASP1 enzyme produced in the HEK 293 cells was diluted in the reaction buffer (50 mM HEPES pH 8,0; 100 mM NaCl; 0,01% CHAPS; 0.5 mM Gluthathione) to the concentration of 20 nM and 25 μl was transferred into each single well of 384-well white microtiter plate (Greiner Bio One 781075). 1 μl of the inhibitor compound solution (dissolved in DMSO, at the corresponding concentration) or pure DMSO as a control was added to the same wells. The enzymatic reaction was initiated by addition of 25 μl of 20 μM solution of the FRET substrate ABZ-[…]-Lys (Dnp)-NH2; (ABZ-2-aminobenzoyl; DNP 2,4-dinitrophenyl; custom synthesis by Jerini Peptide Technologies, Berlin) in the reaction buffer. The microtiter plate was incubated for 60-120 min at the temperature of 32 C. The increase of fluorescence intensity was measured in appropriate fluorescence plate reader (e.g. TECAN Ultra) using excitation wavelength of 320 nm and emission wavelength of 420 nm. IC50 values were calculated from percentage of inhibition of human MASP1 activity as a function of test compound concentration.

The target of a further experiment is human MASP2 (Homo sapiens (Human), UniProt O00187). The experiment in a line: Biochemical human MASP2 assay (FRET substrate). Particulars: Average IC50; recombinant human MASP2; read-out: human MASP2 IC50. The text has this:
The MASP1 or MASP2 expression vectors were transfected into the HEK293 (ATCC No. CRL-1573) cell line using Lipofectamine LTX® Reagent (Thermo-Fischer), as described by the manufacturer. The mature form of the recombinant human MASP1 and M[…] were secreted into the culture medium. The MASP1 and M[…] were purified from the conditioned media by affinity chromatography on Ni-NTA Superflow resin (Qiagen) as described by the manufacturer. 2.3 Biochemical Human MASP2 Assay […] The enzymatic reaction was initiated by addition of 25 μl of 60 μM solution of the FRET substrate DABCYL-[…]; […] The microtiter plate was incubated for 60-120 min at the temperature of 32 C. The increase of fluorescence intensity was measured in appropriate fluorescence plate reader (e.g. TECAN Ultra) using excitation wavelength of 340 nm and emission wavelength of 490 nm. IC50 values were calculated from percentage of inhibition of human MASP2 activity as a function of test compound concentration.

Chain of human MASP1 (P48740 other isoform, or with tags, fused parts or gaps): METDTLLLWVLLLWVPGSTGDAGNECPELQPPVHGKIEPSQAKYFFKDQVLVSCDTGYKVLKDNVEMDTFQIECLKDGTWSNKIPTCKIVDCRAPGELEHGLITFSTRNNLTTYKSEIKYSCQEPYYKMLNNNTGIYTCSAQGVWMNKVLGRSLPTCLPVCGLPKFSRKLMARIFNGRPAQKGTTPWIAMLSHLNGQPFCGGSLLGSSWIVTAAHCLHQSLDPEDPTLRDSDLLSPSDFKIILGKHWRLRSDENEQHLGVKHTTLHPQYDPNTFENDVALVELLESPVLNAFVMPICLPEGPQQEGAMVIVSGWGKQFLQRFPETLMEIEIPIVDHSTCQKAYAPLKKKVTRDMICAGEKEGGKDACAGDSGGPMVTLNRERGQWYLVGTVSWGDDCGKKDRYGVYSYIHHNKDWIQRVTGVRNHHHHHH
Chain of human MASP2 (O00187 other isoform, or with tags, fused parts or gaps): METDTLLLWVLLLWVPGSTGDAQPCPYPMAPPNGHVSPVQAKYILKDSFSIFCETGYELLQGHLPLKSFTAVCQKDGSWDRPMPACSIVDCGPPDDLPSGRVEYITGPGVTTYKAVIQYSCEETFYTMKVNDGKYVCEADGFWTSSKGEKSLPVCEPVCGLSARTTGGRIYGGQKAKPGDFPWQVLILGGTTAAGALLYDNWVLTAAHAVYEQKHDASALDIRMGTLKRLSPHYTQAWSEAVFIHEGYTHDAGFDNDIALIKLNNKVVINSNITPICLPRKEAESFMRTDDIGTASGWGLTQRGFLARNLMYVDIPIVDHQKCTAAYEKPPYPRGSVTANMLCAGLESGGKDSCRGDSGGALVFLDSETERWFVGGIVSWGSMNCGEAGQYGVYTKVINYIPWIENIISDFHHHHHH

In the case of `CC[C@H](C)[C@@H]1NC(=O)[C@H](C)NC(=O)CCCCCNC(=O)[C@H](CC(=O)O)NC(=O)[C@@H]2CCCN2C(=O)[C@H]([C@@H](C)CC)NC(=O)[C@H]2NC(=O)[C@H]([C@@H](C)CC)NC(=O)[C@@H]3CCCN3C(=O)[C@@H]3CCCN3C(=O)[C@H](CC(C)(C)C)NC(=O)[C@H](CO)NC(=O)[C@H](CCCNC(=N)N)NC(=O)[C@H](CO)NC(=O)[C@H](CSSC2(C)C)NC1=O` [Example 27] (cyclo(AICSRS[tBuAla]PPI[Pen]IPD[Ahx]); disulfide 3-11), the IC50 on human MASP1 was 0.0091 µM; at human MASP2 it was 0.0375 µM.

In the case of `CC[C@H](C)[C@@H]1NC(=O)[C@H](C)NC(=O)CNC(=O)[C@H](C)NC(=O)[C@H](CC(=O)O)NC(=O)[C@@H]2CCCN2C(=O)[C@H]([C@@H](C)CC)NC(=O)[C@@H]2CSSC[C@H](NC1=O)C(=O)N[C@@H](CO)C(=O)N[C@@H](CCCNC(=N)N)C(=O)N[C@@H](CO)C(=O)N[C@@H](CC(C)(C)C)C(=O)N1CCC[C@H]1C(=O)N1CCC[C@H]1C(=O)N[C@@H]([C@@H](C)CC)C(=O)N2C` [Example 31] (cyclo(AGAICSRS[tBuAla]PPI[NMeC]IPD); disulfide 5-13), the IC50 at human MASP1 came to 0.016 µM; at human MASP2 it was 0.13 µM.

Take `CC[C@H](C)[C@@H]1NC(=O)CNC(=O)CNC(=O)[C@H](C)NC(=O)[C@@H](CC(=O)O)NC(=O)[C@@H]2CCCN2C(=O)[C@H]([C@@H](C)CC)NC(=O)[C@@H]2CSSC[C@H](NC1=O)C(=O)N[C@@H](CO)C(=O)N[C@@H](CCCNC(=N)N)C(=O)N[C@@H](CO)C(=O)N[C@@H](CC(C)C)C(=O)N1CCC[C@H]1C(=O)N1CCC[C@H]1C(=O)N[C@@H]([C@@H](C)CC)C(=O)N2` [Example 17] (cyclo(AGGICSRSLPPICIP[dD]); disulfide 5-13): the concentration for half-maximal inhibition (IC50) came to 0.026 µM at human MASP1 and 0.088 µM at human MASP2.

On to `CC[C@@H]1NC(=O)CCCCCNC(=O)[C@H](CC(=O)O)NC(=O)[C@@H]2CCCN2C(=O)[C@H]([C@@H](C)CC)NC(=O)[C@H]2NC(=O)[C@H]([C@@H](C)CC)NC(=O)[C@@H]3CCCN3C(=O)[C@@H]3CCCN3C(=O)[C@H](CC(C)(C)C)NC(=O)[C@H](CO)NC(=O)[C@H](CCCNC(=N)N)NC(=O)[C@H](CO)NC(=O)[C@H](CSSC2(C)C)NC(=O)[C@H]([C@@H](C)CC)NC1=O` [Example 38] (cyclo([Abu]ICSRS[tBuAla]PPI[Pen]IPD[Ahx]); disulfide 3-11), for which the IC50 at human MASP1 is 0.02 µM; on human MASP2, 0.044 µM.

Regarding `CC[C@H](C)[C@@H]1NC(=O)CNC(=O)[C@@H](N)CCC(=O)NCCCC[C@@H](C(N)=O)NC(=O)[C@@H]2CCCN2C(=O)[C@H]([C@@H](C)CC)NC(=O)[C@H]2NC(=O)[C@H]([C@@H](C)CC)NC(=O)[C@@H]3C[C@@H]4CCCC[C@@H]4N3C(=O)[C@@H]3CCCN3C(=O)[C@H](CC(C)C)NC(=O)[C@H](CO)NC(=O)[C@H](CCCNC(=N)N)NC(=O)[C@H](CO)NC(=O)[C@H](CSSC2(C)C)NC1=O` [Example 90] (H-EGICSRSLP[Oic]I[Pen]IPK-NH2; lactam 1-15; disulfide 4-12), the IC50 at human MASP1 stood at 0.0098 µM; at human MASP2 it was 0.11 µM.

Take `CC[C@H](C)[C@@H]1NC(=O)CNC(=O)CNC(=O)[C@H](C)NC(=O)[C@H](CC(=O)O)NC(=O)[C@@H]2CCCN2C(=O)[C@H]([C@@H](C)CC)NC(=O)[C@@H]2CSSC[C@H](NC1=O)C(=O)N[C@@H](CO)C(=O)N[C@@H](CCCNC(=N)N)C(=O)N[C@@H](CO)C(=O)N[C@@H](CC(C)C)C(=O)N1CCC[C@H]1C(=O)N1CCC[C@H]1C(=O)N[C@@H]([C@@H](C)CC)C(=O)N2` [Example 18] (cyclo(AGGICSRSLPPICIPD); disulfide 5-13): the IC50 on human MASP1 was 0.05 µM; at human MASP2, 0.015 µM.

In the case of `CC[C@H](C)[C@@H]1NC(=O)[C@H](C)NC(=O)CCCCCNC(=O)[C@H](CC(=O)O)NC(=O)[C@@H]2CCCN2C(=O)[C@H]([C@@H](C)CC)NC(=O)[C@@H]2CSSC[C@H](NC1=O)C(=O)N[C@@H](CO)C(=O)N[C@@H](CCCNC(=N)N)C(=O)N[C@@H](CO)C(=O)N[C@@H](CC(C)C)C(=O)N1CCC[C@H]1C(=O)N1CCC[C@H]1C(=O)N[C@@H]([C@@H](C)CC)C(=O)N2` [Example 45] (cyclo(AICSRSLPPICIPD[Ahx]); disulfide 3-11), the IC50 at human MASP1 amounted to 0.092 µM; on human MASP2, 0.074 µM.

For `CC[C@H](C)[C@@H]1NC(=O)[C@H](C)NC(=O)CN(C)C(=O)CCCCCNC(=O)CC[C@@H](C(N)=O)NC(=O)[C@@H]2CCCN2C(=O)[C@H]([C@@H](C)CC)NC(=O)[C@H]2NC(=O)[C@H]([C@@H](C)CC)NC(=O)[C@@H]3C[C@@H]4CCCC[C@@H]4N3C(=O)[C@@H]3CCCN3C(=O)[C@H](CC(C)C)NC(=O)[C@H](CO)NC(=O)[C@H](CCCNC(=N)N)NC(=O)[C@H](CO)NC(=O)[C@H](CSSC2(C)C)NC1=O` [Example 77] ([Ahx][Sar]AICSRSLP[Oic]I[Pen]IPE-NH2; disulfide 5-13; lactam N-16), the figures for the IC50 on human MASP1 and on human MASP2 were 0.011 µM and 0.21 µM, respectively.

Consider `CC[C@H](C)[C@@H]1NC(=O)[C@@H](N)CCCNC(=O)[C@@H]2CCCN2C(=O)[C@H]([C@@H](C)CC)NC(=O)[C@H]2NC(=O)[C@H]([C@@H](C)CC)NC(=O)[C@@H]3CCCN3C(=O)[C@@H]3CCCN3C(=O)[C@H](CC(C)(C)C)NC(=O)[C@H](CO)NC(=O)[C@H](CCCNC(=N)N)NC(=O)[C@H](CO)NC(=O)[C@H](CSSC2(C)C)NC1=O` [Example 71, N-{3-[(6S,9S,12S,15S,18R,21S,24S,29aS,35S,38R,41S,43aS,48aS)-24-amino-21,35,41-tri[(2S)-butan-2-yl]-6-(2,2-dimethylpropyl)-9,15-bis(hydroxymethyl)-49,49-dimethyl-5,8,11,14,17,20,23,29,34,37,40,43,48-tridecaoxohexatetracontahydro-1H,5H-18,38-(methanodithiomethano)tripyrrolo[2,1-c:2′,1′-o:2″,1″-r][1,4,7,10,13,16,19,22,25,28,31,34,37]tridecaazacyclodotetracontin-12-yl]propyl}guanidine] (H-[Orn]ICSRS[tBuAla]PPI[Pen]IP; lactam 1-C; disulfide 3-11), for which the IC50 at human MASP1 came out at 0.021 µM; on human MASP2, 0.024 µM.

As for `CC[C@H](C)[C@@H]1NC(=O)[C@H](C)NC(=O)CNC(=O)[C@@H](N)Cn2cc(nn2)C[C@@H](C(N)=O)NC(=O)[C@@H]2CCCN2C(=O)[C@H]([C@@H](C)CC)NC(=O)[C@@H]2CSSC[C@H](NC1=O)C(=O)N[C@@H](CO)C(=O)N[C@@H](CCCNC(=N)N)C(=O)N[C@@H](CO)C(=O)N[C@@H](CC(C)(C)C)C(=O)N1CCC[C@H]1C(=O)N1CCC[C@H]1C(=O)N[C@@H]([C@@H](C)CC)C(=O)N2` [Example 81] (H-[Dap(N3)]GAICSRS[tBuAla]PPICIP[Pra]-NH2; triazole 1-16; disulfide 5-13), the IC50 stood at 0.018 µM at human MASP1 and 0.23 µM on human MASP2.

`CC[C@H](C)[C@@H]1NC(=O)CNC(=O)CCCCCNC(=O)C[C@@H](C(N)=O)NC(=O)[C@@H]2CCCN2C(=O)[C@H]([C@@H](C)CC)NC(=O)[C@H]2NC(=O)[C@H]([C@@H](C)CC)NC(=O)[C@@H]3C[C@@H]4CCCC[C@@H]4N3C(=O)[C@@H]3CCCN3C(=O)[C@H](CC(C)C)NC(=O)[C@H](CO)NC(=O)[C@H](CCCNC(=N)N)NC(=O)[C@H](CO)NC(=O)[C@H](CSSC2(C)C)NC1=O` [Example 49] ([Ahx]GICSRSLP[Oic]I[Pen]IPD-NH2; disulfide 4-12; lactam N-15): the IC50 on human MASP1 was found to be 0.019 µM; on human MASP2 it was 0.14 µM.

Values taken from patent US20240010684A1, “MASP INHIBITORY COMPOUNDS AND USES THEREOF” (BAYER AKTIENGESELLSCHAFT, priority 2020, published 2024).
